Assay results taken from US10583137B2, “Triazole DAGLα inhibitors” (THE SCRIPPS RESEARCH INSTITUTE, priority 2015, dated 2020).

Assays:
[1] = system: brain 2-AG and other DAGL-regulated lipids; assay: brain lipid profiles of treated mice by LC-MS; format: in vivo, mouse; conditions: 50 mg/kg i.p., 4 hr post-dosing
Protocol: Brain lipid profiles of mice treated with compounds 14, 17 and control compound 22.
Mice were treated with 50 mg/kg compound (i.p.), followed by lipid profiling using LC-MS at a 4 hr post-dosing. […] This depletion of brain 2-AG in compound 14 and 17-treated mice was dose-dependent (data not shown) and was observed within 2 h after injection. […] The changes in each lipid species were dose-dependent and were absent in compound 22 treated mice (FIGS. 6C, E, G, I, and K).

[2] = system: DSE at parallel fiber to Purkinje cell synapses; assay: depolarization-induced suppression of excitation (DSE) in acute cerebellar slices; conditions: 10 μM
From the text: Various forms of synaptic plasticity are regulated by 2-AG signaling, included depolarization-induced suppression of excitation (DSE) and inhibition (DSI). DSE was examined at parallel fiber (PF) to Purkinje cell (PC) synapses in acute cerebellar slices. A brief depolarization of PCs induced robust transient DSE at PF-PC synapses in vehicle treated cerebellar slices (FIG. 7A).

[3] = system: DSI at CA1 pyramidal neuron synapses; assay: depolarization-induced suppression of inhibition (DSI) in hippocampal slices; conditions: 10 μM, bath application 30 min
Protocol: DSI was evaluated at CA1 pyramidal neuron synapses in hippocampal slices. DSI was induced in vehicle-treated hippocampal slices by applying a brief depolarization while evoking […] through stimulation of synaptic inhibitory inputs (FIG. 7C). Bath application of compound 14 (10 μM) and compound 17 (1 μM), but not compound 22 (10 μM), for 30 min before starting electrophysiological recordings blocked hippocampal DSI (FIGS. 7C and D).

[4] = system: LPS-induced neuroinflammatory responses (brain lipids, cytokines, body temperature); assay: LPS-induced neuroinflammatory responses in mouse brain; format: in vivo; conditions: mice
Protocol: The effects of pharmacological and genetic inactivation of DAGL activity on neuroinflammatory responses (brain prostaglandin and cytokine production) induced by high-dose lipopolysaccharide treatment was examined.
Mice were treated with compounds 14, 17, control compound 22 or vehicle (50 mg/kg, i.p) for 60-90 min, followed by LPS (20 mg/kg, i.p., 6 hr) or vehicle. The mice were subsequently sacrificed and their brain lipid and cytokine profiles analyzed. […] The LPS-induced elevations in both 2-AG and PGE2 were suppressed in compound 14 and compound 17 treated mice and DAGLα/mice, but not compound 22 treated mice. […] LPS-induced anapyrexia was blunted in compound 14 and 17 treated mice (FIG. 8E) and DAGLα−/− mice (FIG. 8F), but not compound 22 treated mice (FIG. 8E).

[5] = biological target: recombinant human DAGLα (Homo sapiens (Human), UniProt Q9Y4D2); assay: SAG substrate assay (in vitro inhibition of 2-AG biosynthesis), membrane lysates from HEK293T cells; format: biochemical; conditions: any dose tested
Sequence of recombinant human DAGLα (Q9Y4D2 whole entry): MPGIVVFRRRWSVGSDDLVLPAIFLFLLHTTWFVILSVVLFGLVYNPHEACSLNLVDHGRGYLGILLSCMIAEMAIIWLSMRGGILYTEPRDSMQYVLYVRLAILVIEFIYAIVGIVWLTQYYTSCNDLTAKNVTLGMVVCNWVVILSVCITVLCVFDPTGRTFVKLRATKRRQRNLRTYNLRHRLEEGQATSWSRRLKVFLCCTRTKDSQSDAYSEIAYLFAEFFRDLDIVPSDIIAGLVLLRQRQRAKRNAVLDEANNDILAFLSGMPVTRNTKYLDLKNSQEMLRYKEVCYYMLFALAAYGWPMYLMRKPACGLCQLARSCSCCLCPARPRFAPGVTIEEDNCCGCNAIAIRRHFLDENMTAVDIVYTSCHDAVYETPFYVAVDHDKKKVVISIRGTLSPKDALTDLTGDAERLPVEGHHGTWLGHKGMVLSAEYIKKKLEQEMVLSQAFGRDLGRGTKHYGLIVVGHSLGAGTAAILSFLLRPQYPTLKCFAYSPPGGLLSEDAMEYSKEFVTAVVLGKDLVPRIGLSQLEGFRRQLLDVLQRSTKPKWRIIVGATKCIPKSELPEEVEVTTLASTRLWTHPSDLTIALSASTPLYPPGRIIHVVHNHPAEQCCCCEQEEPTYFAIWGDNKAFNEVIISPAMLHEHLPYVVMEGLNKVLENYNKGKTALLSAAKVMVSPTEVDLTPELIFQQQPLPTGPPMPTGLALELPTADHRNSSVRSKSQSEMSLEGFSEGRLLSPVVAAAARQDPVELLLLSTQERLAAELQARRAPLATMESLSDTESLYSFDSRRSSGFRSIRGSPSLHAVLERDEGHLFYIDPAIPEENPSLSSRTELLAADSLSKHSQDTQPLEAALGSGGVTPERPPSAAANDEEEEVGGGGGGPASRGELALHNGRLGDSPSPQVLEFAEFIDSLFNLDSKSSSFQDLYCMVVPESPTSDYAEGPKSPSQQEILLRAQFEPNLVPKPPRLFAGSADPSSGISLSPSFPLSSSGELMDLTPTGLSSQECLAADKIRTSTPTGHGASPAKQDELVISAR
Protocol: DAGL modulators were tested for in vitro inhibition of 2-AG biosynthesis using a 1-stearoyl-2-arachidonoyl-sn-glycerol (SAG) substrate assay in DAGL-transfected HEK293 cells.
The SAG substrate assay, as described in Journal of lipid research 56(4):927-935, was performed using the following assay conditions: 0.2 U/mL glycerol kinase (GK), glycerol-3-phosphate oxidase (GPO) and horseradish peroxidase (HRP), 0.125 mM ATP, 10 μM Amplifu™Red, 5% DMSO in a total volume of 200 μL. The assay additionally contained SAG, a DAGL modulator, and membrane lysates from HEK293T cells expressing recombinant human DAGLα or DAGLβ.
Membranes were prepared from HEK293T cells transiently transfected with DAGLα or DAGLβ plasmids encoding for full length DAGLα or DAGLβ, respectively (Angewandte Chemie 52(46):12081-12085; Journal of Medicinal Chemistry 57(15):6610-6622). Briefly, one day prior to transfection, 10^7 cells were seeded in a 15 cm petri dish. The seeded cells were transfected by the addition of a 3:1 mixture of polyethyleneimine (60 μg) and plasmid DNA (20 μg) in 2 mL serum free medium. The medium was refreshed after 24 hr, and after 72 hr the cells were harvested by suspending them in 20 mL medium. The suspension was centrifuged for 10 min at 1000 rpm, and the supernatant was removed. The cell pellet was stored at −80° C. until use. Cell pellets were thawed on ice and suspended in lysis buffer A (20 mM HEPES, 2 mM DTT, 0.25 M sucrose, 1 mM MgCl2, lx protease inhibitor cocktail (Roche cOmplete EDTA free), 25 U/μL Benzonase). The suspension was homogenized by polytrone (3×7 sec) and incubated for 30 min on ice. The suspension was subjected to ultracentrifugation (100,000×g, 30 min, 4° C., Beckman Coulter, Type Ti70 rotor) to yield the cytosolic fraction in the supernatant and the membrane fraction as a pellet. The pellet was resuspended in lysis buffer B (20 mM HEPES, 2 mM DTT, lx protease inhibitor cocktail (Roche cOmplete EDTA free)) and the protein concentration determined with Quick Start Bradford assay (Biorad). The protein fractions were diluted to a total protein concentration of 1 mg/mL and stored in small aliquots at −80° C. until use.

[6] = biological target: DAGLα (hDAGLα-FLAG) (Homo sapiens (Human), UniProt Q9Y4D2); assay: competitive ABPP, membrane proteome of transfected HEK293T cells; format: biochemical; conditions: 0.8 μM (stated under the cell); read-out: DAGLα % inh. 0.8 μM
Sequence of DAGLα (hDAGLα-FLAG) (Q9Y4D2 whole entry): as above
Procedure, shortened: (§1)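 HEK293T membrane proteome (1 mg/ml) expressing FLAG-tagged human DAGLα or DAGLβ, treated 30 min at room temperature with compound, then 30 min with HT-01 or FP-Rh probe (1 μM). Bands separated by SDS-PAGE were normalized to DMSO for IC50 by variable-slope fit.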

[7] = biological target: DAGLβ (hDAGLβ-FLAG) (Homo sapiens (Human), UniProt Q8NCG7); assay: as above; format: biochemical; conditions: 0.8 μM (stated under the cell); read-out: DAGLβ % inh. 0.8 μM
Sequence of DAGLβ (hDAGLβ-FLAG) (Q8NCG7 whole entry): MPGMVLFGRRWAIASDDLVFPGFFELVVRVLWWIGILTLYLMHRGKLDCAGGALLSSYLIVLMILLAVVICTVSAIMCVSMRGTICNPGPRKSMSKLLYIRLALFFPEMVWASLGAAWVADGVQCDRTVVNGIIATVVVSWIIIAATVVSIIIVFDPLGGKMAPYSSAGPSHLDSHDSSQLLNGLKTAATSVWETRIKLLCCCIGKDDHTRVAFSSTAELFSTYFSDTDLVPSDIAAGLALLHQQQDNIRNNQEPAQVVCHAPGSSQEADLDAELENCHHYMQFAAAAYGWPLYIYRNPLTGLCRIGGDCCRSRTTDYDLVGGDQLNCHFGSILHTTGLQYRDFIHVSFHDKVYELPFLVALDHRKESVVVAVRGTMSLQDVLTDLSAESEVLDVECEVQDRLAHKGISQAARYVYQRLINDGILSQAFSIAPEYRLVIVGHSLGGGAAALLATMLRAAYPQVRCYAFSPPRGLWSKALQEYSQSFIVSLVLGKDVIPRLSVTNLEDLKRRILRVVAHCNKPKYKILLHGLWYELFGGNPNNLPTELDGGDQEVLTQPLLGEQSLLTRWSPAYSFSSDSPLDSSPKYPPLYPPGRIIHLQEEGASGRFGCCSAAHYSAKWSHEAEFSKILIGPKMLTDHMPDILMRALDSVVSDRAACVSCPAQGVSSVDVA
Procedure, shortened: as §1

[8] = 50 mg/kg i.p. 60-90 min before LPS 20 mg/kg i.p., 6 hr

CC(C)(C)OC(=O)N1CCN(C(=O)n2cc(-c3ccc(OC(F)(F)F)cc3)nn2)C(c2ccccc2)C1 (centres unmarked) [Compound 22, tert-butyl 3-phenyl-4-(4-(4-(trifluoromethoxy)phenyl)-1H-1,2,3-triazole-1-carbonyl)piperazine-1-carboxylate]
brain 2-AG levels [1]: not | brain AA [1]: absent | brain AEA [1]: absent | brain C18:1/C20:4 DAG [1]: absent | brain PGD2 [1]: absent | brain PGE2 [1]: absent | brain SAG [1]: absent | effect on cerebellar DSE [2]: did not alter | effect on hippocampal DSI [3]: not | LPS-induced elevation in brain 2-AG [4, 8]: not | LPS-induced elevation in brain PGE2 [4, 8]: not | LPS-induced anapyrexia ([4]; 50 mg/kg i.p. before LPS): not | brain AA under basal control conditions ([4]; 50 mg/kg i.p., no LPS): not | brain PGE2 under basal control conditions ([4]; 50 mg/kg i.p., no LPS): not | inhibition of DAGLα [5]: did not substantially inhibit | inhibition at 0.8 µM [6]: 0 to 25% | inhibition at 0.8 µM [7]: 0 to 25%
